Data taken from US7348178B1, “Recombinant adenoviral vector system” (priority 1994, dated 2008).
Entries after “also recorded” stand apart in the source; their conditions may differ.

Tests used:
Assay type in all cases: cell-based, human
[1] = system: cytokeratin network of 293 cells infected with Ad2 ts1; experiment: Indirect immunofluorescence of keratin K18 network in Ad2 ts1-infected 293 cells; conditions: Ad ts1 infection at 39.5° C. plus 2AP, fixed 22 h post infection
Experimental: FIG. 6. […] 293 cells were infected with Ad2 ts1 at 4,000 particles per cell, a 25 plaque forming unit (PFU) per cell equivalent, given the high particle/PFU ratio for this mutant, in the presence or absence of 2AP at 32° C. or 39.5° C. […] Cells were fixed and processed for indirect immunofluorescence, using a keratin K18-specific antibody. Cells infected at 32° C. were fixed at 40 h post infection, cells infected at 39.5° C. were fixed at 22 h post infection. By preventing Ad viral proteolysis of keratin K18, viral induced CPE and early cell lysis can be controlled.
Cells were grown on coverslips, fixed with paraformaldehyde, and permeabilized with Triton X-100. Mouse monoclonal antibodies directed against vimentin were purchased from Boehringer Mannheim Biochemicals. A mouse monoclonal antibody specific for keratins K18 (KS-B17.2) and K1, 5 to 8, 10, 11, and 18 (no. 8.13) were from Sigma Chemical Co. Fluorescein isothiocyanate-conjugated rabbit anti-mouse antibodies were purchased from Sigma. Cells were photographed under visible or ultraviolet light using a Zeiss photomicroscope.
Experiments were performed to test whether coupled shutoff of host protein synthesis and cleavage of cytokeratins truly correlates with development of CPE. […] Cells were infected with […] at permissive (32° C.) and restrictive (39.5° C.) temperatures. […]

[2] = system: wild type Ad-infected 293 cells; experiment: [35S]methionine labeling, SDS-PAGE: Ad shutoff of cell protein synthesis
Experimental: FIG. 7. […] Uninfected and wild type Ad-infected 293 cells were labeled with [^35S]methionine at 24 h post infection and duplicate plates were treated with 10 mM 2AP, added 1 to 2 h after infection. Equal amounts of protein from labeled extracts were analyzed by SDS-polyacrylamide gel electrophoresis and fluorographed. Ad late polypeptides correspond to proteins II, III, IV, V, pIV, pVIII, pVI, and IX.
Cells were labeled with [^35S]methionine for 1 to 2 h by using 50 μCi of trans[^35S]methionine (ICN) per ml in DMEM lacking methionine and supplemented with 2% calf serum. Cell extracts were prepared by sonication of washed cells in 10 mM KC1-10 mM Tris (pH 7.4)−1 mM EDTA at 4° C. and cleared of debris by centrifugation at 10,000 rpm equal amounts of protein were analyzed in sodium dodecyl sulfate (SDS)-polyacrylamide gels. Gels were fluorographed and quantitated by densitometry.
293 cells were treated with 2AP for the duration of infection, starting shortly after the addition of virus. Duplicate plates of cells were then labeled with [^35S]methionine, and extracts were analyzed by SDS-polyacrylamide gel electrophoresis (FIG. 7) or photographed at various times after infection for evidence of CPE (see FIG. 5).

uninfected 293 cells = experiment: Drug cytotoxicity in uninfected 293 cells; conditions: 20 mM 2AP, 48 h posttreatment
[3] = system: wild type Ad-infected 293 cells; experiment: Ad-induced CPE in infected 293 cells, photographed; conditions: wild type Ad 50 PFU per cell, 20 mM 2AP added 2 h post infection, 24 and 48 h
Experimental: FIG. 5. Prevention of adenovirus induced CPE and facilitated cell lysis or loss of metabolic function during expression of late viral genes. Cells were infected at 50 PFU per cell with wild type Ad, and 20 mM 2-aminopurine (2AP) was added to duplicate plates 2 h post infection for up to 48 h. Cells were photographed at 24 and 48 h. […] Late Ad polypeptides can therefore be expressed in this system for the duration of several days without facilitating cell lysis and CPE that would limit their expression.
Ad 300 is a wild type strain 5 isolate (H5wl300) originally purified by H. Ginsberg is available through the ATCC. Ad2 ts1 is described in Chen et al., 1993, J. Virol. 67:3507-3514. 293 cells are human embryonic kidney cell line that express the E1 region of Ad5 (Graham et al., 1977, J. Gen. Virol. 36:59-72). 293 and HeLa cells were cultured in Dulbecco's modified Eagle's medium (DMEM) containing 10% calf serum. Virus stocks were grown and titers were determined on 293 cells. RD (human rhabdosarcoma) cells were obtained from the American Type Culture Collection and grown in DMEM containing 15% fetal bovine serum. 2AP was prepared and used as previously described (Huang & Schneider, 1990, PNAS USA 87:7115-7119). Infections of cells with viruses were typically carried out for 1 h with 50 PFU per cell unless otherwise noted. […]

## Nc1ncc2[nH]cnc2n1 [2AP, 2-aminopurine]
[1]
  keratin network integrity: remarkably well preserved
[2]; 10 mM 2AP added 1 to 2 h after infection, labeled 24 h post infection
  shutoff of cell protein synthesis / translation: prevents the shutoff of translation of cellular and early Ad mRNAs; also recorded: prevent Ad shutoff of cell protein synthesis
[2]; 2AP-treated infected 293 cells
  levels of cellular polypeptide synthesis and of Ad mRNAs lacking the tripartite leader: significantly elevated
Uninfected 293 cells
  cytotoxicity: little detectable cytotoxicity
[3]
  Ad-induced CPE: largely prevented detectable CPE; also recorded: significantly reduced cytopathic effect; also recorded: only slight CPE
